Laboratory results as given in US20250018046A1, “COMPOUNDS FOR TARGETING DEGRADATION OF IRAK4 PROTEINS” (BIOGEN MA INC, priority 2021, published 2025).

These molecules were tested against T1, IRAK4 (Homo sapiens, UniProt Q9NWZ3) (assay: IRAK4 degradation assay using the HiBiT Method). Settings: 293T cells expressing HiBiT-tagged IRAK4; 6-hour incubation; Nano-Glo HiBiT Lytic Assay luminescence.
T1 construct: knocking-in a HiBiT fusion tag into the C-terminal of the IRAK4 gene in 293T cells; host or cells: 293T cells, knock-in of HiBiT at the endogenous IRAK4 locus
T1 sequence (Q9NWZ3 1-460): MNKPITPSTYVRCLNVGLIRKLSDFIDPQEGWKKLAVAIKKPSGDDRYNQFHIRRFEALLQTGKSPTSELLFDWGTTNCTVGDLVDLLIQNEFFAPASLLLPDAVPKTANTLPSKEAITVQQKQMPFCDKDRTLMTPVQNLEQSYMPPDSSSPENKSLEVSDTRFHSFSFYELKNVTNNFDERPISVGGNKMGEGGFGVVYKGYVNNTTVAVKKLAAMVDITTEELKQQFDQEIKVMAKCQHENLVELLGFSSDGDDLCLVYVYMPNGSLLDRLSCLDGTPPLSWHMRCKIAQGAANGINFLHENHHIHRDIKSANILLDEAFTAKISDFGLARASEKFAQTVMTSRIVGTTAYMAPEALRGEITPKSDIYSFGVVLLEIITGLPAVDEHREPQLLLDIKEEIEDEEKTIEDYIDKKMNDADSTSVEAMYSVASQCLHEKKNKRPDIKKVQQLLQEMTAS
Type: cell-based
Protocol: Selected compounds were tested in an IRAK4 degradation assay using the HiBiT Method.
Phenol red-free Dulbecco's modified Eagle medium (DMEM) and fetal bovine serum (FBS) were purchased from Gibco (Grand Island, NY, USA). The Nano-Glo© HiBiT Lytic Assay System was purchased from Promega (Madison, WI, USA). Cell culture flasks and 384-well microplates were acquired from VWR (Radnor, PA, USA). The 293T cell line was engineered by knocking-in a HiBiT fusion tag into the C-terminal of the IRAK4 gene in 293T cells (Synthego, Redwood City, CA, USA).
IRAK4 degradation was measured via the quantification of luminescent signals using the Nano-Glo© HiBiT Lytic Assay kit. Test compounds were added to 384-well plates in duplicate using an 11-point half-log dilution series, with the highest dose set at 10 mM. 293T cells expressing HiBiT-tagged IRAK4 were then added into 384-well plates at a cell density of 10,000 cells per well. The plates were kept at 37° C. with 5% CO2 for 6 hours. Cells that were treated only with DMSO served as the negative control; wells that contained only assay media served as the background control. After the 6-hour incubation, Nano-Glo® HiBiT Lytic Assay reagents were added to the cells. Luminescence was acquired using an EnVision® Multilabel Reader (PerkinElmer, Santa Clara, CA, USA).

SMILES | DC50 [nM]
CC(C)Oc1cc2nc(C3CCN(C(=O)CN4CCC(c5ccc(OC6CCC(=O)NC6=O)cc5)CC4)CC3)cn2cc1NC(=O)c1cccc(C(F)(F)F)n1 (stereo not drawn) [Example 1, N-[2-[1-[2-[4-[4-[(2,6-dioxo-3-piperidyl)oxy]phenyl]-1-piperidyl]acetyl]-4-piperidyl]-7-isopropoxy-imidazo[1,2-a]pyridin-6-yl]-6-(trifluoromethyl) pyridine-2-carboxamide] | 100 to 500
CC(C)Oc1cc2nc(C3CCN(C(=O)CN4CCC(c5cccc(NC6CCC(=O)NC6=O)c5F)CC4)CC3)cn2cc1NC(=O)c1cccc(C(F)(F)F)n1 (stereo not drawn) [Example 2, N-[2-[1-[2-[4-[3-[(2,6-dioxo-3-piperidyl)amino]-2-fluoro-phenyl]-1-piperidyl]acetyl]-4-piperidyl]-7-isopropoxy-imidazo[1,2-a]pyridin-6-yl]-6-(trifluoromethyl)pyridine-2-carboxamide] | 10 to 100
CC(C)Oc1cc2nc(C3CCN(C(=O)CN4CCC(c5cccc(NC6CCC(=O)NC6=O)c5)CC4)CC3)cn2cc1NC(=O)c1cccc(C(F)(F)F)n1 (stereo not drawn) [Example 3, N-[2-[1-[2-[4-[3-[(2,6-dioxo-3-piperidyl)amino]phenyl]-1-piperidyl]acetyl]-4-piperidyl]-7-isopropoxy-imidazo[1,2-a]pyridin-6-yl]-6-(trifluoromethyl)pyridine-2-carboxamide] | 100 to 500
CC(C)Oc1cc2nc(C3CCN(C(=O)CN4CCC(c5ccc(C6CCC(=O)NC6=O)cc5)CC4)CC3)cn2cc1NC(=O)c1cccc(C(F)(F)F)n1 (stereo not drawn) [Example 4, N-[2-[1-[2-[4-[4-(2,6-dioxo-3-piperidyl)phenyl]-1-piperidyl]acetyl]-4-piperidyl]-7-isopropoxy-imidazo[1,2-a]pyridin-6-yl]-6-(trifluoromethyl)pyridine-2-carboxamide] | 100 to 500
CC(C)Oc1cc2nc(C3CCN(C(=O)CN4CCN(c5ccc(C6CCC(=O)NC6=O)cc5)CC4)CC3)cn2cc1NC(=O)c1cccc(C(F)(F)F)n1 (stereo not drawn) [Example 5, N-[2-[1-[2-[4-[4-(2,6-dioxo-3-piperidyl)phenyl]piperazin-1-yl]acetyl]-4-piperidyl]-7-isopropoxy-imidazo[1,2-a]pyridin-6-yl]-6-(trifluoromethyl)pyridine-2-carboxamide] | 100 to 500
CC(C)Oc1cc2nc(C3CCN(C(=O)CN4CCN(c5ccc(OC6CCC(=O)NC6=O)cc5)CC4)CC3)cn2cc1NC(=O)c1cccc(C(F)(F)F)n1 (stereo not drawn) [Example 6, N-[2-[1-[2-[4-[4-[(2,6-dioxo-3-piperidyl)oxy]phenyl]piperazin-1-yl]acetyl]-4-piperidyl]-7-isopropoxy-imidazo[1,2-a]pyridin-6-yl]-6-(trifluoromethyl)pyridine-2-carboxamide] | 100 to 500
CC(C)Oc1cc2nc(C3CCN(C(=O)CN4CCC(c5ccc(NC6CCC(=O)NC6=O)cc5F)CC4)CC3)cn2cc1NC(=O)c1cccc(C(F)(F)F)n1 (stereo not drawn) [Example 7, N-[2-[1-[2-[4-[4-[(2,6-dioxo-3-piperidyl)amino]-2-fluoro-phenyl]-1-piperidyl]acetyl]-4-piperidyl]-7-isopropoxy-imidazo[1,2-a]pyridin-6-yl]-6-(trifluoromethyl)pyridine-2-carboxamide] | 100 to 500
CC(C)Oc1cc2nc(C3CCN(C(=O)CCN4CCC(c5ccc(NC6CCC(=O)NC6=O)cc5F)CC4)CC3)cn2cc1NC(=O)c1cccc(C(F)(F)F)n1 (stereo not drawn) [Example 8, N-[2-[1-[3-[4-[4-[(2,6-dioxo-3-piperidyl)amino]-2-fluoro-phenyl]-1-piperidyl]propanoyl]-4-piperidyl]-7-isopropoxy-imidazo[1,2-a]pyridin-6-yl]-6-(trifluoromethyl)pyridine-2-carboxamide] | 10 to 100

Next, values leading:

DC50 [nM] | SMILES
10 to 100 | CC(C)Oc1cn2cc(C3CCN(CC(=O)N4CCC(c5ccc(NC6CCC(=O)NC6=O)cc5)CC4)CC3)nc2cc1NC(=O)c1cccc(C(F)(F)F)n1 (single isomer, unassigned) [Example 14, N-[2-[1-[2-[4-[4-[[2,6-dioxo-3-piperidyl]amino]phenyl]-1-piperidyl]-2-oxo-ethyl]-4-piperidyl]-6-isopropoxy-imidazo[1,2-a]pyridin-7-yl]-6-(trifluoromethyl)pyridine-2-carboxamide]
10 to 100 | CC(C)Oc1cn2cc(C3CCN(CC(=O)N4CCC(c5ccc(NC6CCC(=O)NC6=O)cc5)CC4)CC3)nc2cc1NC(=O)c1cccc(C(F)(F)F)n1 (single isomer, unassigned) [Example 15, N-[2-[1-[2-[4-[4-[[2,6-dioxo-3-piperidyl]amino]phenyl]-1-piperidyl]-2-oxo-ethyl]-4-piperidyl]-6-isopropoxy-imidazo[1,2-a]pyridin-7-yl]-6-(trifluoromethyl)pyridine-2-carboxamide]
10 to 100 | CC(C)Oc1cc2nc(C3CCN(C(=O)CN4CCC(c5ccc(NC6CCC(=O)NC6=O)cc5)CC4)CC3)cn2cc1NC(=O)c1cccc(C(F)(F)F)n1 (stereo not drawn) [Example 9, N-[2-[1-[2-[4-[4-[(2,6-dioxo-3-piperidyl)amino]phenyl]-1-piperidyl]acetyl]-4-piperidyl]-7-isopropoxy-imidazo[1,2-a]pyridin-6-yl]-6-(trifluoromethyl)pyridine-2-carboxamide]
100 to 500 | CC(C)Oc1cc2nc(C3CCN(C(=O)CN4CCN(c5ccc(NC6CCC(=O)NC6=O)cc5)CC4)CC3)cn2cc1NC(=O)c1cccc(C(F)(F)F)n1 (stereo not drawn) [Example 10, N-[2-[1-[2-[4-[4-[(2,6-dioxo-3-piperidyl)amino]phenyl]piperazin-1-yl]acetyl]-4-piperidyl]-7-isopropoxy-imidazo[1,2-a]pyridin-6-yl]-6-(trifluoromethyl)pyridine-2-carboxamide]
100 to 500 | CC(C)Oc1cc2nc(C3CCN(CC(=O)N4CCC(c5ccc(NC6CCC(=O)NC6=O)cn5)CC4)CC3)cn2cc1NC(=O)c1cccc(C(F)(F)F)n1 (stereo not drawn) [Example 11, N-[2-[1-[2-[4-[5-[(2,6-dioxo-3-piperidyl)amino]-2-pyridyl]-1-piperidyl]-2-oxo-ethyl]-4-piperidyl]-7-isopropoxy-imidazo[1,2-a]pyridin-6-yl]-6-(trifluoromethyl)pyridine-2-carboxamide]
100 to 500 | CC(C)Oc1cc2nc(C3CCN(CC(=O)N4CCC(c5ccc(C6(F)CCC(=O)NC6=O)cc5)CC4)CC3)cn2cc1NC(=O)c1cccc(C(F)(F)F)n1 (stereo not drawn) [Example 12, N-[2-[1-[2-[4-[4-(3-fluoro-2,6-dioxo-3-piperidyl)phenyl]-1-piperidyl]-2-oxo-ethyl]-4-piperidyl]-7-isopropoxy-imidazo[1,2-a]pyridin-6-yl]-6-(trifluoromethyl)pyridine-2-carboxamide]
100 to 500 | CC(C)Oc1cc2nc(C3CCN(CC(=O)N4CCC(c5cccc(NC6CCC(=O)NC6=O)c5F)CC4)CC3)cn2cc1NC(=O)c1cccc(C(F)(F)F)n1 (stereo not drawn) [Example 13, N-[2-[1-[2-[4-[3-[(2,6-dioxo-3-piperidyl)amino]-2-fluoro-phenyl]-1-piperidyl]-2-oxo-ethyl]-4-piperidyl]-7-isopropoxy-imidazo[1,2-a]pyridin-6-yl]-6-(trifluoromethyl)pyridine-2-carboxamide]
100 to 500 | CC(C)Oc1cc2nc(C3CCN(CC(=O)N4CCN(CCCc5ccc(NC6CCC(=O)NC6=O)cc5)CC4)CC3)cn2cc1NC(=O)c1cccc(C(F)(F)F)n1 (stereo not drawn) [Example 16, N-[2-[1-[2-[4-[3-[4-[(2,6-dioxo-3-piperidyl)amino]phenyl]propyl]piperazin-1-yl]-2-oxo-ethyl]-4-piperidyl]-7-isopropoxy-imidazo[1,2-a]pyridin-6-yl]-6-(trifluoromethyl) pyridine-2-carboxamide]
10 to 100 | CC(C)Oc1cc2nc(C3CCN(CC(=O)N4CCC(c5cccc(NC6CCC(=O)NC6=O)c5)CC4)CC3)cn2cc1NC(=O)c1cccc(C(F)(F)F)n1 (stereo not drawn) [Example 17, N-[2-[1-[2-[4-[3-[(2,6-dioxo-3-piperidyl)amino]phenyl]-1-piperidyl]-2-oxo-ethyl]-4-piperidyl]-7-isopropoxy-imidazo[1,2-a]pyridin-6-yl]-6-(trifluoromethyl)pyridine-2-carboxamide]
10 to 100 | CC(C)Oc1cc2nc(C3CCN(CC(=O)N4CCN(c5cc6c(cc5F)c(N5CCC(=O)NC5=O)nn6C)CC4)CC3)cn2cc1NC(=O)c1cccc(C(F)(F)F)n1 [Example 18, N-(2-(1-(2-(4-(3-(2,4-dioxotetrahydropyrimidin-1(2H)-yl)-5-fluoro-1-methyl-1H-indazol-6-yl)piperazin-1-yl)-2-oxoethyl)piperidin-4-yl)-7-isopropoxyimidazo[1,2-a]pyridin-6-yl)-6-(trifluoromethyl)picolinamide]
